US20020187977A1, “Methods for restoring cognitive function following systemic stress” (priority 2001, published 2002)
Square brackets hold non-standard residues; d marks the D form. Peptide text beside a SMILES is read from it. * marks the point of attachment. ξ: configuration not given here. PhAc = O=C(Cc1ccccc1)*; ξP = O=C(O)C1CCCN1

Assays:
[1] = Preliminary study of oral bioavailability in four volunteers; assay type: in vivo; conditions: humans
[2] = Phase I clinical trials, plasma concentration after oral administration; assay type: in vivo, human; conditions: oral administration of the 20 mg/day dose
Experimental: Fourteen healthy young volunteers were orally administered 20 mg/day of compound 2 for 28 days in two Phase I clinical trials. 34 patients with mild to moderate cognitive disturbance were orally administered doses of up to 30 mg/day of compound 2 for 28 days.
After oral administration of the 20 mg/day dose, peak plasma concentrations of 25-38 ng/mL were observed 15-30 minutes after dosing.

[3] = test system: patients with cognitive disturbances secondary to cerebrovascular and traumatic brain injury; experiment: Four-week open-label Phase II clinical trial of efficacy (MMSE, OCS, CCSE); assay type: in vivo, human; conditions: 10 mg orally t.i.d. for four weeks, 20 patients with mild cognitive disturbance
Experimental: The efficacy of 10 mg of compound 2 administered orally t.i.d. was investigated in a four-week open-label Phase II clinical trial at two centers. A total of 20 patients with cognitive disturbances secondary to cerebrovascular and traumatic brain injury were orally administered compound 2 during a Phase II clinical trial at a dose of 10 mg t.i.d. for a period of four weeks. At study entry, patients fulfilled specific criteria for mild cognitive disturbance.
Improvement on several tests, including the Mini Mental State Evaluation (MMSE) (Folstein et al., Psychiatric Research, 12, 189-198 (1975)), the Overall Clinical Impression Scale (OCS), which is a system developed by the National Institute of Mental Health: 12-CGI Clinical Global Impression ECDEU Assessment Manual for Psychopharmacology, E. Guyo, ed., Rockville Md., (217-222) (1976), and the Cognitive Capacity Screening Exam (CCSE) (Jacobs et al., Annals of Internal Medicine, 86, 40-46 (1977).

- oral bioavailability [1]: orally bioavailable
- peak plasma concentrations [2]: 25 to 38 ng/mL
- time of peak plasma concentrations after dosing [2]: 15 to 30 min
SMILES: CCOC(=O)CNC(=O)C1CCCN1C(=O)Cc1ccccc1 (stereo not shown) [compound 2] (PhAc-[ξP]-Gly-OEt)
- treated patients who met the definition of efficacy response (statistically measured improvement in one or more of the tests by the end of the study) [3]: over 75%
